From patent US10745382B2 (BRISTOL-MYERS SQUIBB COMPANY, priority 2015, dated 2020)
pIC50: −log10 of the molar value. Like-named read-outs stand apart in the source and are kept apart here.

Target: T1, PD-1/PD-L1 (Homo sapiens, UniProt Q9NZQ7)
T1 construct: made in house; host or cells: HEK293T
Experiment: PD-1/PD-L1 Homogenous Time-Resolved Fluorescence (HTRF) binding assay
Conditions: PD-L1-His 10 nM, PD-1-Ig 20 nM, read-out: Range or IC50
Outline: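 Compounds are tested for blocking the PD-1/PD-L1 interaction in dPBS supplemented with 0.1% BSA and 0.05% (v/v) Tween-20. Tagged proteins are detected with Eu-cryptate anti-Ig and APC anti-His at 1 and 20 nM final.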

T1 sequence (Q9NZQ7 with tags, fused parts or gaps): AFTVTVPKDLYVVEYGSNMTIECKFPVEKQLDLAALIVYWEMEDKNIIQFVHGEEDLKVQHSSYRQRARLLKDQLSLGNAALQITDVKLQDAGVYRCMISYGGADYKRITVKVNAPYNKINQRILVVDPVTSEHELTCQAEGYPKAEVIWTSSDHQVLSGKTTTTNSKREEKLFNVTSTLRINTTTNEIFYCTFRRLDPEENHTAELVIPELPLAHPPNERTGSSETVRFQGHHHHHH

pIC50 (value given as range class) | Compound | also measured
8.00 to 9.68 | Cc1cc(OCCCN2CC[C@@H](O)C2)ccc1-c1cccc(COc2cc(OCc3cncc(C#N)c3)c(CN[C@H](CO)C(=O)O)cc2Cl)c1C [Example 1070, (R)-2-((5-chloro-2-((5-cyanopyridin-3-yl)methoxy)-4-((4′-(3-((R)-3-hydroxypyrrolidin-1-yl)propoxy)-2,2′-dimethyl-[1,1′-biphenyl]-3-yl)methoxy)benzyl)amino)-3-hydroxypropanoic Acid] | –
8.00 to 9.68 | Cc1c(COc2cc(OCc3cncc(C#N)c3)c(CNC(CO)CO)cc2Cl)cccc1-c1cccc(C(=O)NCCN2CCS(=O)(=O)CC2)c1C [Example 4005, 3′-((2-chloro-5-((5-cyanopyridin-3-yl)methoxy)-4-(((1,3-dihydroxypropan-2-yl)amino)methyl)phenoxy)methyl)-N-(2-(1,1-dioxidothiomorpholino)ethyl)-2,2′-dimethyl-[1,1′-biphenyl]-3-carboxamide] | –
8.00 to 9.68 | Cc1c(COc2cc(OCc3cncc(C#N)c3)c(CN[C@@](C)(CO)C(=O)O)cc2Cl)cccc1-c1cccc(O[C@H](C)CCN2CC[C@@H](O)C2)c1C [Example 1525, (S)-2-((5-chloro-2-((5-cyanopyridin-3-yl)methoxy)-4-((3′-(((R)-4-((R)-3-hydroxypyrrolidin-1-yl)butan-2-yl)oxy)-2,2′-dimethyl-[1,1′-biphenyl]-3-yl)methoxy)benzyl)amino)-3-hydroxy-2-methylpropanoic acid] | –
8.00 to 9.68 | N#Cc1cncc(COc2cc(OCc3cccc(-c4cccc(OCCCN5CCCCC5)c4Cl)c3Cl)c(Cl)cc2CO)c1 [Example 2046, 5-((4-chloro-5-((2,2′-dichloro-3′-(3-(piperidin-1-yl)propoxy)-[1,1′-biphenyl]-3-yl)methoxy)-2-(hydroxymethyl)phenoxy)methyl)nicotinonitrile] | –
– | Cc1c(COc2cc(OCc3cncc(C#N)c3)c(CN3CCCC[C@H]3C(=O)O)cc2Cl)cccc1-c1cccc(OCC(=O)N2CC[C@@H](O)C2)c1 [Example 1007, (S)-1-(5-chloro-2-((5-cyanopyridin-3-yl)methoxy)-4-((3′-(2-((R)-3-hydroxypyrrolidin-1-yl)-2-oxoethoxy)-2-methyl-[1,1′-biphenyl]-3-yl)methoxy)benzyl)piperidine-2-carboxylic Acid] | pIC50 (numeric IC50): 7.59
8.00 to 9.68 | Cc1c(COc2cc(OCc3cncc(C#N)c3)c(CN3CCCCC3CO)cc2Cl)cccc1-c1cccc(OCCCN2CC[C@@H](O)C2)c1C (stereo partly drawn) [Example 2334, 5-((4-chloro-2-((2-(hydroxymethyl)piperidin-1-yl)methyl)-5-((3′-(3-((R)-3-hydroxypyrrolidin-1-yl)propoxy)-2,2′-dimethyl-[1,1′-biphenyl]-3-yl)methoxy)phenoxy)methyl)nicotinonitrile] | –
– | Cc1c(COc2cc(OCc3cncc(C#N)c3)c(CN3CCCC[C@H]3C(=O)O)cc2Cl)cccc1-c1cccc(OCCCNC[C@H](O)CO)c1Cl [Example 2007, (S)-1-(5-chloro-4-((2′-chloro-3′-(3-(((S)-2,3-dihydroxypropyl)amino)propoxy)-2-methyl-[1,1′-biphenyl]-3-yl)methoxy)-2-((5-cyanopyridin-3-yl)methoxy)benzyl)piperidine-2-carboxylic Acid] | pIC50 (numeric IC50): 9.06
8.00 to 9.68 | Cc1c(COc2cc(OCc3cncc(C#N)c3)c(CN3CCC[C@H](C(=O)O)C3)cc2Cl)cccc1-c1cccc(OCCCN2CCC[C@H](C(=O)O)C2)c1C [Example 2259, (3S)-1-(3-(3′-((4-(((S)-3-carboxypiperidin-1-yl)methyl)-2-chloro-5-((5-cyanopyridin-3-yl)methoxy)phenoxy)methyl)-2,2′-dimethylbiphenyl-3-yloxy)propyl)piperidine-3-carboxylic Acid] | –
5.70 to 7.00 | Cc1c(COc2cc(OCc3cncc(C#N)c3)c(CN3C[C@H](O)C[C@H]3C(=O)O)cc2Cl)cccc1-c1cccc(C(=O)N2CCOCC2)c1C [Example 4050, (2S,4R)-1-(5-chloro-2-((5-cyanopyridin-3-yl)methoxy)-4-((2,2′-dimethyl-3′-(morpholine-4-carbonyl)-[1,1′-biphenyl]-3-yl)methoxy)benzyl)-4-hydroxypyrrolidine-2-carboxylic Acid] | –
8.00 to 9.68 | Cc1c(COc2cc(OCc3cncc(C#N)c3)c(CN(C)C(CO)CO)cc2Cl)cccc1-c1cccc(OCCCN2CC[C@@H](O)C2)c1C [Example 2325, (R)-5-((4-chloro-2-(((1,3-dihydroxypropan-2-yl)(methyl)amino)methyl)-5-((3′-(3-(3-hydroxypyrrolidin-1-yl)propoxy)-2,2′-dimethyl-[1,1′-biphenyl]-3-yl)methoxy)phenoxy)methyl)nicotinonitrile] | –
7.00 to 8.00 | Cc1c(COc2cc(OCc3cncc(C#N)c3)c(CN3CCCC[C@H]3C(=O)O)cc2Cl)cccc1-c1cccc(C(=O)NCCN2CC[C@@H](O)C2)c1C [Example 3060, (S)-1-(5-chloro-2-((5-cyanopyridin-3-yl)methoxy)-4-((3′-((2-((R)-3-hydroxypyrrolidin-1-yl)ethyl)carbamoyl)-2,2′-dimethyl-[1,1′-biphenyl]-3-yl)methoxy)benzyl)piperidine-2-carboxylic Acid] | –
8.00 to 9.68 | COC(=O)C1(C)CCCCN1Cc1cc(Cl)c(OCc2cccc(-c3cccc(OCCCN4CC[C@@H](O)C4)c3Cl)c2C)cc1OCc1cncc(C#N)c1 (stereo partly drawn) [Example 3070, methyl 1-(5-chloro-4-((2′-chloro-3′-(3-((R)-3-hydroxypyrrolidin-1-yl)propoxy)-2-methyl-[1,1′-biphenyl]-3-yl)methoxy)-2-((5-cyanopyridin-3-yl)methoxy)benzyl)-2-methylpiperidine-2-carboxylate] | –
8.00 to 9.68 | Cc1c(COc2cc(OCc3cncc(C#N)c3)c(CNCCCN(C)C)cc2Cl)cccc1-c1cccc(OCCCN2CCC(O)C2)c1C (stereo in doubt) [Example 3007, (R)-5-((4-chloro-2-(((3-(dimethylamino)propyl)amino)methyl)-5-((3′-(3-(3-hydroxypyrrolidin-1-yl)propoxy)-2,2′-dimethyl-[1,1′-biphenyl]-3-yl)methoxy)phenoxy)methyl)nicotinonitrile] | –
8.00 to 9.68 | CN(C)CCOc1cc(OCc2cccc(-c3cccc(OCCCN4CC[C@@H](O)C4)c3Cl)c2Cl)c(Cl)cc1CNC(C)(CO)CO [Example 2108, (R)-2-((5-chloro-4-((2,2′-dichloro-3′-(3-(3-hydroxypyrrolidin-1-yl)propoxy)-[1,1′-biphenyl]-3-yl)methoxy)-2-(2-(dimethylamino)ethoxy)benzyl)amino)-2-methylpropane-1,3-diol] | –
– | Cc1c(OCCCN2CC[C@@H](O)C2)cccc1-c1cccc(OCc2cc(O)c(CN(C)C)cc2Cl)c1C [Example 2123, (R)-1-(3-((3′-((2-chloro-4-((dimethylamino)methyl)-5-hydroxybenzyl)oxy)-2,2′-dimethyl-[1,1′-biphenyl]-3-yl)oxy)propyl)pyrrolidin-3-ol] | IC50 (numeric IC50, cell prints uM): 2 µM
8.00 to 9.68 | C=CCOc1cc(OCc2cccc(-c3cccc(OCCCN4CC[C@@H](O)C4)c3C)c2Cl)c(Cl)cc1CNC(CO)CO [Example 2313, (R)-2-((2-(allyloxy)-5-chloro-4-((2-chloro-3′-(3-(3-hydroxypyrrolidin-1-yl)propoxy)-2′-methyl-[1,1′-biphenyl]-3-yl)methoxy)benzyl)amino)propane-1,3-diol] | –
8.00 to 9.68 | Cc1c(COc2cc(OCc3cncc(C#N)c3)c(CN[C@](C)(CO)C(=O)O)cc2Cl)cccc1-c1cccc(OCCCN[C@](C)(CO)C(=O)O)c1Cl [Example 2023, (R)-2-((3-((3′-((4-((((R)-2-carboxy-1-hydroxypropan-2-yl)amino)methyl)-2-chloro-5-((5-cyanopyridin-3-yl)methoxy)phenoxy)methyl)-2-chloro-2′-methyl-[1,1′-biphenyl]-3-yl)oxy)propyl)amino)-3-hydroxy-2-methylpropanoic Acid] | –
5.70 to 7.00 | COc1cc(NC(=O)c2cccc(-c3cccc(OCCCN4CC[C@@H](O)C4)c3C)c2C)c(Cl)cc1C(=O)N1CCCC[C@H]1C(=O)O [Example 4519, (S)-1-(5-chloro-4-(3′-(3-((R)-3-hydroxypyrrolidin-1-yl)propoxy)-2,2′-dimethyl-[1,1′-biphenyl]-3-ylcarboxamido)-2-methoxybenzoyl)piperidine-2-carboxylic Acid] | –
8.00 to 9.68 | Cc1c(COc2cc(OCc3cncc(C#N)c3)c(CN3CCCC[C@H]3C(=O)O)cc2Cl)cccc1-c1cccc(OCCCN(C)Cc2cccnc2)c1C [Example 2226, (2S)-1-(5-chloro-2-((5-cyanopyridin-3-yl)methoxy)-4-((2,2′-dimethyl-3′-(3-(methyl(pyridin-3-ylmethyl)amino)propoxy)biphenyl-3-yl)methoxy)benzyl)piperidine-2-carboxylic Acid] | –
8.00 to 9.68 | Cc1c(COc2cc(OCc3cncc(C#N)c3)c(CNC3(CO)CC3)cc2Cl)cccc1-c1cccc(OCCCN2CC[C@@H](O)C2)c1Cl [Example 2077, (R)-5-((4-chloro-5-((2′-chloro-3′-(3-(3-hydroxypyrrolidin-1-yl)propoxy)-2-methyl-[1,1′-biphenyl]-3-yl)methoxy)-2-(((1-(hydroxymethyl)cyclopropyl)amino)methyl)phenoxy)methyl)nicotinonitrile] | –
8.00 to 9.68 | Cc1c(COc2cc(OCc3cncc(C#N)c3)c(C(C)N3C[C@H](O)C[C@H]3C(=O)O)cc2Cl)cccc1-c1cccc(OCCCN2CC[C@@H](O)C2)c1C (stereo partly drawn) [Example 4138, (2S,4R)-1-(1-(5-chloro-2-((5-cyanopyridin-3-yl)methoxy)-4-((3′-(3-((R)-3-hydroxypyrrolidin-1-yl)propoxy)-2,2′-dimethyl-[1,1′-biphenyl]-3-yl)methoxy)phenyl)ethyl)-4-hydroxypyrrolidine-2-carboxylic Acid] | –
